Test results taken from PubChem BioAssay AID248 (DTP/NCI, 2004).
Toxic doses and inconclusive results are not listed. No stated cut-off is given here; in the data, active means T/C of 150% or more; inactive means T/C below 125%.

System: L1210 leukemia ip in BDF1 mice, survival T/C
Experiment: NCI In Vivo Anticancer Drug Screen. Data for tumor model L1210 Leukemia (intraperitoneal) in B6D2F1 (BDF1) mice
Conditions: endpoint: mean survival time, higher = longer survival
In short: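 Tumor cells were implanted, animals were treated, and survival was followed. The result divides the treated measurement by the vehicle-control measurement.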

[1] = dose: 100.0 mg/kg/injection, schedule: Q04DX002 (ip), vehicle: Klucel (hydroxypropylcellulose) (HPC)
[2] = dose: 200.0 mg/kg/injection, schedule: Q04DX002 (ip), vehicle: Klucel (hydroxypropylcellulose) (HPC)
[3] = dose: 400.0 mg/kg/injection, schedule: Q04DX002 (ip), vehicle: Klucel (hydroxypropylcellulose) (HPC)
[4] = dose: 100.0 mg/kg/injection, schedule: Q04DX003 (ip), vehicle: saline with Tween-80
[5] = dose: 50.0 mg/kg/injection, schedule: Q01DX009 (ip), vehicle: saline with Tween-80
[6] = dose: 100.0 mg/kg/injection, schedule: Q01DX009 (ip), vehicle: saline with Tween-80
[7] = dose: 200.0 mg/kg/injection, schedule: Q01DX009 (ip), vehicle: saline with Tween-80
[8] = dose: 100.0 mg/kg/injection, schedule: Q01DX001 (ip), vehicle: saline
[9] = dose: 100.0 mg/kg/injection, schedule: Q01DX009 (ip), vehicle: saline
[10] = dose: 200.0 mg/kg/injection, schedule: Q01DX001 (ip), vehicle: saline
[11] = dose: 200.0 mg/kg/injection, schedule: Q01DX009 (ip), vehicle: saline
[12] = dose: 400.0 mg/kg/injection, schedule: Q01DX001 (ip), vehicle: saline
[13] = dose: 400.0 mg/kg/injection, schedule: Q01DX009 (ip), vehicle: saline

Measured: T/C

CCCCCCCCCCCCCCCCCCNC(=S)OC
inactive: [1] 91 % of control | [2] 97 % of control | [3] 102 % of control

CCCCCCCCCCCC(=O)[O][Hg][c]1ccccc1
inactive: dose: 75.0 mg/kg/injection, schedule: Q01DX001 (ip), vehicle: other 91 % of control

NCCNc1ncnc2c1ncn2C1OC(CO)C(O)C1O (centres undefined)
inactive: dose: 6.25 mg/kg/injection, schedule: Q01DX009 (ip), vehicle: saline 115 % of control | dose: 12.5 mg/kg/injection, schedule: Q01DX005 (ip), vehicle: saline 101 % of control | dose: 12.5 mg/kg/injection, schedule: Q01DX009 (ip), vehicle: saline 111 % of control | dose: 25.0 mg/kg/injection, schedule: Q01DX005 (ip), vehicle: saline 100 % of control | dose: 25.0 mg/kg/injection, schedule: Q01DX009 (ip), vehicle: saline 117 % of control | dose: 50.0 mg/kg/injection, schedule: Q01DX005 (ip), vehicle: saline 97 % of control | dose: 100.0 mg/kg/injection, schedule: Q01DX005 (ip), vehicle: saline 86 % of control

C[Si](C)(C)Oc1cccc(O[Si](C)(C)C)c1
inactive: [4] 95 % of control | dose: 200.0 mg/kg/injection, schedule: Q04DX003 (ip), vehicle: saline with Tween-80 96 % of control | dose: 400.0 mg/kg/injection, schedule: Q04DX003 (ip), vehicle: saline with Tween-80 93 % of control

O=C1OCC/C1=C\OCCc1ccccc1
inactive: [1] 98 % of control | [2] 94 % of control | [3] 94 % of control

OCC(c1ccccc1)[P+](c1ccccc1)(c1ccccc1)c1ccccc1 (centres undefined)
inactive: dose: 5.0 mg/kg/injection, schedule: Q01DX001 (ip), vehicle: saline 94 % of control | dose: 10.0 mg/kg/injection, schedule: Q01DX001 (ip), vehicle: saline 97 % of control | dose: 20.0 mg/kg/injection, schedule: Q01DX001 (ip), vehicle: saline 103 % of control | dose: 40.0 mg/kg/injection, schedule: Q01DX001 (ip), vehicle: saline 97 % of control | dose: 80.0 mg/kg/injection, schedule: Q01DX001 (ip), vehicle: saline 97 % of control

CCCCCCCCCCCCCCCC(=O)SCCSC(=O)CCCCCCCCCCCCCCC
inactive: dose: 87.5 mg/kg/injection, schedule: Q04DX003 (ip), vehicle: other 93 % of control | dose: 175.0 mg/kg/injection, schedule: Q04DX003 (ip), vehicle: other 93 % of control

CC1CC=CCC1COC(OCC1CC=CCC1C)C1CC=CCC1C (centres undefined)
inactive: dose: 100.0 mg/kg/injection, schedule: Q01DX009 (ip), vehicle: other 93 % of control | dose: 100.0 mg/kg/injection, schedule: Q04DX003 (ip), vehicle: other 100 % of control | dose: 200.0 mg/kg/injection, schedule: Q01DX009 (ip), vehicle: other 98 % of control | dose: 200.0 mg/kg/injection, schedule: Q04DX003 (ip), vehicle: other 98 % of control | dose: 400.0 mg/kg/injection, schedule: Q01DX009 (ip), vehicle: other 93 % of control | dose: 400.0 mg/kg/injection, schedule: Q04DX003 (ip), vehicle: other 96 % of control

Cc1no[n+]([O-])c1C(=O)N(C)C
inactive: dose: 25.0 mg/kg/injection, schedule: Q04DX002 (ip), vehicle: Klucel (hydroxypropylcellulose) (HPC) 95 % of control | dose: 50.0 mg/kg/injection, schedule: Q04DX002 (ip), vehicle: Klucel (hydroxypropylcellulose) (HPC) 95 % of control | [1] 95 % of control

O=C(O)COc1ccc(Cl)cc1CCl
inactive: dose: 100.0 mg/kg/injection, schedule: Q04DX003 (ip), vehicle: Klucel (hydroxypropylcellulose) (HPC) 100 % of control | dose: 200.0 mg/kg/injection, schedule: Q04DX003 (ip), vehicle: Klucel (hydroxypropylcellulose) (HPC) 98 % of control | dose: 400.0 mg/kg/injection, schedule: Q04DX003 (ip), vehicle: Klucel (hydroxypropylcellulose) (HPC) 102 % of control

C=C1N2CCC(CC2)C1(O)c1ccccc1 (centres undefined)
inactive: dose: 3.13 mg/kg/injection, schedule: Q04DX003 (ip), vehicle: saline 92 % of control | dose: 6.25 mg/kg/injection, schedule: Q04DX003 (ip), vehicle: saline 103 % of control | dose: 12.5 mg/kg/injection, schedule: Q04DX003 (ip), vehicle: Klucel (hydroxypropylcellulose) (HPC) 103 % of control | dose: 12.5 mg/kg/injection, schedule: Q04DX003 (ip), vehicle: saline 97 % of control

CN(C(=O)C1CCCCC1)C1CCCCC1O (centres undefined)
inactive: [5] 101 % of control | [6] 93 % of control | [7] 90 % of control

CCOC(=O)c1ccc(NC(=O)Nc2ccc(OC)c([N+](=O)[O-])c2)cc1
inactive: [6] 95 % of control | [7] 90 % of control

CC1=C(O)C(=O)C(C2=C(O)C(=O)C(C)=C(O)C2=O)=C(O)C1=O
inactive: dose: 0.1 mg/kg/injection, schedule: Q01DX Z (ip), vehicle: carboxymethylcellulose (CMC) 111 % of control | dose: 0.2 mg/kg/injection, schedule: Q01DX Z (ip), vehicle: carboxymethylcellulose (CMC) 105 % of control | dose: 0.5 mg/kg/injection, schedule: Q01DX Z (ip), vehicle: carboxymethylcellulose (CMC) 94 % of control | dose: 1.0 mg/kg/injection, schedule: Q01DX Z (ip), vehicle: carboxymethylcellulose (CMC) 94 % of control | dose: 5.0 mg/kg/injection, schedule: Q01DX001 (ip), vehicle: carboxymethylcellulose (CMC) 103 % of control | dose: 10.0 mg/kg/injection, schedule: Q01DX001 (ip), vehicle: carboxymethylcellulose (CMC) 102 % of control | dose: 12.0 micrograms/kg/injection, schedule: Q01DX Z (ip), vehicle: carboxymethylcellulose (CMC) 101 % of control | dose: 25.0 micrograms/kg/injection, schedule: Q01DX Z (ip), vehicle: carboxymethylcellulose (CMC) 101 % of control | dose: 50.0 micrograms/kg/injection, schedule: Q01DX Z (ip), vehicle: carboxymethylcellulose (CMC) 101 % of control

CCCCCC(=O)c1c(O)cc2c(c1O)C(=O)c1c(O)cc(O)cc1C2=O
inactive: [8] 86 % of control | dose: 300.0 mg/kg/injection, schedule: Q01DX001 (ip), vehicle: saline 91 % of control

CCOC(=O)C1CCC(C(=O)OCC)N1C (centres undefined)
inactive: [8] 97 % of control | [9] 96 % of control | [10] 88 % of control | [11] 98 % of control | [12] 95 % of control | [13] 100 % of control

COc1cc(OC)c(NC(=S)Nc2ccc([N+](=O)[O-])cc2)cc1Cl
inactive: [5] 92 % of control | [6] 88 % of control | [7] 90 % of control

NNc1ccc(S(=O)(=O)C(F)F)cc1
inactive: [8] 95 % of control | [10] 92 % of control | [12] 93 % of control

Cc1nc2sc3c(c2c(=S)[nH]1)CCCC3
inactive: dose: 100.0 mg/kg/injection, schedule: Q01DX001 (ip), vehicle: saline sonified 86 % of control | dose: 200.0 mg/kg/injection, schedule: Q01DX001 (ip), vehicle: saline sonified 89 % of control | dose: 400.0 mg/kg/injection, schedule: Q01DX001 (ip), vehicle: saline sonified 91 % of control

CCOCc1cccc(C(=O)NCCCc2c(-c3ccccc3)nc(N)[nH]c2=O)c1
inactive: dose: 36.2 mg/kg/injection, schedule: Q01DX001 (ip), vehicle: Klucel (hydroxypropylcellulose) (HPC) 94 % of control | dose: 62.5 mg/kg/injection, schedule: Q01DX001 (ip), vehicle: Klucel (hydroxypropylcellulose) (HPC) 105 % of control | dose: 125.0 mg/kg/injection, schedule: Q01DX001 (ip), vehicle: Klucel (hydroxypropylcellulose) (HPC) 98 % of control

O=[N+]([O-])c1ccc(OC(=S)Cl)cc1
inactive: dose: 6.25 mg/kg/injection, schedule: Q04DX002 (ip), vehicle: saline with Tween-80 99 % of control | dose: 12.5 mg/kg/injection, schedule: Q04DX002 (ip), vehicle: saline with Tween-80 101 % of control | dose: 25.0 mg/kg/injection, schedule: Q04DX002 (ip), vehicle: saline with Tween-80 96 % of control | [4] 103 % of control

O=C(/C=C\c1ccc(O)c(O)c1)OC1C(O)CC(OC(=O)/C=C/c2ccc(O)c(O)c2)(C(=O)O)CC1O (centres undefined)
inactive: [9] 105 % of control | [11] 91 % of control | [13] 94 % of control

Cc1c(C)c2cc(Br)ccc2[nH]c1=O
inactive: dose: 100.0 mg/kg/injection, schedule: Q01DX001 (ip), vehicle: other 103 % of control | dose: 200.0 mg/kg/injection, schedule: Q01DX001 (ip), vehicle: other 97 % of control | dose: 400.0 mg/kg/injection, schedule: Q01DX001 (ip), vehicle: other 97 % of control
